Results on 20 compounds are retold here after patent US8541585B2, “N-acyl cyclic amine derivative or pharmaceutically acceptable salt thereof” (Dainippon Sumitomo Pharma Co., Ltd., priority 2010, dated 2013).

For one experiment, the target named is human D2L receptor (Homo sapiens, UniProt P14416). Put plainly: Dopamine D2L receptor binding assay ([3H]-spiperone). Conditions: 10 nM test drug, [3H]-spiperone 0.5 nM, human D2L receptor-expressing CHO cell membrane; for inhibition at 0.01 µM: read-out: BINDING INHIBITION RATE (%) D2L 10 nM. In a few lines: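 CHO membranes expressing human D2L incubated 60 min at RT with 0.5 nM [³H]-spiperone in 50 mM Tris-HCl pH 7.6; filtration and scintillation counting. Nonspecific binding with 10 μM spiperone; % binding inhibition at 10 nM test drug.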

Another experiment has as its target T1, human 5-HT2A receptor (Homo sapiens, UniProt P28223).
T1 construct: expressed in transfected cells; host or cells: CHO cells (membrane preparation)
Put plainly: Serotonin 5-HT2A receptor binding assay ([3H]-ketanserin). Conditions: [3H]-ketanserin 1 nM, human 5-HT2A receptor-expressing CHO cell membrane; for inhibition at 0.01 µM: 10 nM test drug, read-out: BINDING INHIBITION RATE (%) 5HT2A 10 nM; for inhibition at 0.001 µM: read-out: BINDING INHIBITION RATE (%) 5HT2A 1 nM. In a few lines:
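Membranes from CHO cells expressing human 5-HT2A incubated 15 min at 37 °C with 1 nM [3H]-ketanserin in 50 mM Tris-HCl pH 7.6, then filtered and counted by scintillation. Nonspecific binding defined with 10 μM MDL-100907; inhibition rate determined at 1 nM or 10 nM test drug.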

The next experiment addresses T2, human 5-HT6 receptor (Homo sapiens, UniProt P50406).
T2 construct: expressed in transfected cells; host or cells: CHO cells (membrane preparation)
Put plainly: Serotonin 5-HT6 receptor binding assay ([3H]-clozapine). Conditions: 100 nM test drug, [3H]-clozapine 2 nM, human 5-HT6 receptor-expressing CHO cell membrane; for inhibition at 0.1 µM: read-out: BINDING INHIBITION RATE (%) 5HT6 100 nM. In a few lines:
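Membranes from CHO cells expressing human 5-HT6 were incubated with [3H]-clozapine (2 nM final) for 40 min at room temperature in 50 mM Tris-HCl pH 7.6, 4 mM CaCl2, 0.5 mM EDTA. Bound radioactivity was filtered and counted. Values are % binding inhibition at 100 nM test drug, with nonspecific binding defined by 10 μM SB-258585.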

In a further experiment the target is T3, human α1D receptor (Homo sapiens, UniProt P25100).
T3 construct: expressed in transfected cells; host or cells: CHO cells (membrane preparation)
T3 sequence (P25100 1-572): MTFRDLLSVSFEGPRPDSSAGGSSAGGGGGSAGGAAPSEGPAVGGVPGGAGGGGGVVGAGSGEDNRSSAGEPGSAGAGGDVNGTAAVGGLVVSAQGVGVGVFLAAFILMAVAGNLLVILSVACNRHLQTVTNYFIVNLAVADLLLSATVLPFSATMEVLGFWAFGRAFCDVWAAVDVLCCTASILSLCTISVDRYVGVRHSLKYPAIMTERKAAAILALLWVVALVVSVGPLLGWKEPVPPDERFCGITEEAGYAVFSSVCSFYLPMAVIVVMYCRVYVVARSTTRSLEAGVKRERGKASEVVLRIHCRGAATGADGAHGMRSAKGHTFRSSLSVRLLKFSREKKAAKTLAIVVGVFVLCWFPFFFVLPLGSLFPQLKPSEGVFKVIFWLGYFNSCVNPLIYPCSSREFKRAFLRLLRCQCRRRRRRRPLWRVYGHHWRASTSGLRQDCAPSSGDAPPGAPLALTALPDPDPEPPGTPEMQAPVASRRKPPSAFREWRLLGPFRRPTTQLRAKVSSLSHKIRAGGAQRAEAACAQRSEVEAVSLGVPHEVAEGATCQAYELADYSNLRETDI
The experiment in a line: Adrenaline α1D receptor binding assay ([3H]-prazosin). Conditions: 100 nM test drug, [3H]-prazosin 0.6 nM, human α1D receptor-expressing CHO cell membrane; for inhibition at 0.1 µM: read-out: BINDING INHIBITION RATE (%) α1D 100 nM. In a few lines:
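Membranes from CHO cells expressing human α1D, incubated 30 min at room temperature with 0.6 nM [3H]-prazosin in 50 mM Tris-HCl pH 7.6, filtered and counted. Nonspecific binding defined with 1 μM prazosin. Test drug at 100 nM, reported as percent inhibition of binding.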

Sequence of human D2L receptor (P14416 whole entry): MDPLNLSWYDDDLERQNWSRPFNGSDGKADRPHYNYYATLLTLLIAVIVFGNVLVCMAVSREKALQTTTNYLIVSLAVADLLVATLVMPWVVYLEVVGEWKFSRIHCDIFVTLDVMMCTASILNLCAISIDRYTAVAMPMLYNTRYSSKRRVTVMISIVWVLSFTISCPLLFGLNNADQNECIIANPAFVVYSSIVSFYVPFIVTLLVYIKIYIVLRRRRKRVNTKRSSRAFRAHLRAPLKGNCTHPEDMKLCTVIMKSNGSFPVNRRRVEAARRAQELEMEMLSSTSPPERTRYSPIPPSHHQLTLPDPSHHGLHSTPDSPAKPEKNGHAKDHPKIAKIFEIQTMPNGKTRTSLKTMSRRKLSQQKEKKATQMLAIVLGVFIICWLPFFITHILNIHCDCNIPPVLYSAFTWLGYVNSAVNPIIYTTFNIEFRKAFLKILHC
T2 sequence (P50406 whole entry): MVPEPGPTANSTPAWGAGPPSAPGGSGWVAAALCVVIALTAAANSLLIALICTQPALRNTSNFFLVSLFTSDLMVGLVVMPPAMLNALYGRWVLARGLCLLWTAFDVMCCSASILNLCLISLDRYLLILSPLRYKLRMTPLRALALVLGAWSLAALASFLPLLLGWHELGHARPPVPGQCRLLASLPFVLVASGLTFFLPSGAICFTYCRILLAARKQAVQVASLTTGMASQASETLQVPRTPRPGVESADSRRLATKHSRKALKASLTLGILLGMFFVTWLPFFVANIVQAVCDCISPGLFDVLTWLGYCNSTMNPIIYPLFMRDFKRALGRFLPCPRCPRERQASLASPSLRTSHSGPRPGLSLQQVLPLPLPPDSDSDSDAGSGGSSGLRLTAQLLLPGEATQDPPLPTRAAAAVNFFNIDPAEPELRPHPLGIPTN
T1 sequence (P28223 whole entry): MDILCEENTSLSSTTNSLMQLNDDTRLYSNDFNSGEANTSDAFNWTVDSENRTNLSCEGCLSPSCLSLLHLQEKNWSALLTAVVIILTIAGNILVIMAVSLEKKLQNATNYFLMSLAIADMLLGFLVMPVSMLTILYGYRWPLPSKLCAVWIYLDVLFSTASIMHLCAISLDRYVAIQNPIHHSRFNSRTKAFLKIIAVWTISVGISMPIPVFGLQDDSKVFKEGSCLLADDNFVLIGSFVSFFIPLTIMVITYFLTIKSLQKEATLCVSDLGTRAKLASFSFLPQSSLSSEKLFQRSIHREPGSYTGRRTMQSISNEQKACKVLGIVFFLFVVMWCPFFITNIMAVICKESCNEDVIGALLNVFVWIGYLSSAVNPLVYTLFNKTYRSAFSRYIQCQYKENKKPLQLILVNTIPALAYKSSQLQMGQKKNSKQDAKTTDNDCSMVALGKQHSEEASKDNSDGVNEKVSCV

Broadly, the inhibition is how much of the control response was suppressed. On to `Cc1ccc2[nH]c(C(=O)N3CCC[C@H]3CCN3CCC(c4coc5ccccc45)CC3)cc2c1` [Example 8, (S)-(2-(2-(4-(Benzofuran-3-yl)piperidin-1-yl)ethyl)pyrrolidin-1-yl)(5-methyl-1H-indol-2-yl)methanone], for which the inhibition at 0.01 µM at human D2L receptor came out at 76%; at human 5-HT2A receptor, 92%. The inhibition at 0.1 µM on human 5-HT6 receptor is 93%; at human α1D receptor, 62%.

For `O=C(/C=C/c1ccc2c(c1)OCO2)N1CCC[C@H](CN2CCC(c3c[nH]c4ccccc34)CC2)C1` [Example 34], the inhibition at 0.01 µM on human D2L receptor was 75%; at human 5-HT2A receptor it was 98%. The inhibition at 0.1 µM on human 5-HT6 receptor is 86%; on human α1D receptor, 93%.

Regarding “(S)-(2-(2-(4-(4-Fluorobenzoyl)piperidin-1-yl)ethyl)pyrrolidin-1-yl)(1-methyl-1H-indol-5-yl)methanone [Example 169]”, the “BINDING INHIBITION RATE (%) D2L 10 nM” value on human D2L receptor is given as 81%. In addition, the “BINDING INHIBITION RATE (%) 5HT2A 1 nM” value on human 5-HT2A receptor (1 nM test drug) is recorded as 47%. In addition, at human 5-HT6 receptor, the “BINDING INHIBITION RATE (%) 5HT6 100 nM” value was 73%. Moreover, the “BINDING INHIBITION RATE (%) α1D 100 nM” value on human α1D receptor is 49%.

`Cc1cc2c3c(c1)cc(C(=O)N1CCC[C@H]1CCN1CCC(C(=O)c4ccc(F)cc4)CC1)n3CCC2=O` [Example 46]: the inhibition at 0.01 µM on human D2L receptor was found to be 58%. The inhibition at 0.001 µM at human 5-HT2A receptor (1 nM test drug) turned out to be 48%. Besides, the values for the inhibition at 0.1 µM at human 5-HT6 receptor and at human α1D receptor were 82% and 54%, respectively.

`O=C(c1ccc(F)cc1)C1CCN(CC[C@@H]2CCCN2C(=O)c2[nH]c3cc(F)ccc3c2F)CC1` [Example 163, (S)-(3,6-Difluoro-1H-indol-2-yl)(2-(2-(4-(4-fluorobenzoyl)piperidin-1-yl)ethyl)pyrrolidin-1-yl)methanone]: the inhibition at 0.01 µM at human D2L receptor turned out to be 88%. In addition, the inhibition at 0.001 µM on human 5-HT2A receptor (1 nM test drug) was determined as 75%. The inhibition at 0.1 µM at human 5-HT6 receptor came out at 95%; at human α1D receptor, 48%.

For `O=C(c1ccc(F)cc1)C1CCN(CC[C@@H]2CCCN2C(=O)c2[nH]c3ccccc3c2C(=O)N2CCCCC2)CC1` [Example 54], the inhibition at 0.01 µM on human D2L receptor is 71%. Also, the inhibition at 0.001 µM on human 5-HT2A receptor (1 nM test drug) was 7%. Besides, the results for the inhibition at 0.1 µM at human 5-HT6 receptor and on human α1D receptor were 81% and 63%, respectively.

`Cc1ccc2cc(C(=O)N3CCC[C@H]3CCN3CCC(C(=O)c4ccc(F)cc4)CC3)[nH]c2c1` [Example 1, (S)-(2-(2-(4-(4-Fluorobenzoyl)piperidin-1-yl)ethyl)pyrrolidin-1-yl)(6-methyl-1H-indol-2-yl)methanone]: the inhibition at 0.01 µM at human D2L receptor was 91%. The inhibition at 0.001 µM at human 5-HT2A receptor (1 nM test drug) came to 73%. Moreover, the values for the inhibition at 0.1 µM at human 5-HT6 receptor and on human α1D receptor were 96% and 68%, respectively.

As to `Cc1ccc2cc(C(=O)N3C[C@H](O)CC[C@H]3CCN3CCC(c4c[nH]c5ccccc45)CC3)[nH]c2c1` [Example 39], the inhibition at 0.01 µM on human D2L receptor amounted to 77%. Further, the inhibition at 0.001 µM at human 5-HT2A receptor (1 nM test drug) was determined as 70%. The inhibition at 0.1 µM is 86% at human 5-HT6 receptor and 69% on human α1D receptor.

On to `Cc1ccc2cc(C(=O)N3CCC[C@H]3CCN3CCC(c4c[nH]c5cc(F)ccc45)CC3)[nH]c2c1` [Example 5], for which the inhibition at 0.01 µM at human D2L receptor was 83%. The inhibition at 0.001 µM on human 5-HT2A receptor (1 nM test drug) turned out to be 72%. The figures for the inhibition at 0.1 µM at human 5-HT6 receptor and on human α1D receptor were 98% and 70%, respectively.

As for `Cc1ccc2cc(C(=O)N3CCC[C@H]3CCN3CCN(c4nccc5ccccc45)CC3)[nH]c2c1` [Example 11], the inhibition at 0.01 µM at human D2L receptor is 69%. Further, at human 5-HT2A receptor (1 nM test drug), the inhibition at 0.001 µM is 64%. Further, the inhibition at 0.1 µM is 86% on human 5-HT6 receptor and 5% at human α1D receptor.

For the compound `COc1ccc2[nH]c(C(=O)N3C[C@@](C)(O)C[C@H]3CCN3CCC(c4c[nH]c5ccccc45)CC3)cc2c1` [Example 38], the inhibition at 0.01 µM at human D2L receptor was 72%; on human 5-HT2A receptor, 97%. The inhibition at 0.1 µM was 86% on human 5-HT6 receptor and 67% at human α1D receptor.

Consider `O=C(/C=C/c1ccc2c(c1)OCO2)N1CCC[C@H](CN2CCC(c3coc4ccccc34)CC2)C1` [Example 29], for which the inhibition at 0.01 µM on human D2L receptor turned out to be 80%; at human 5-HT2A receptor it was 100%. Moreover, the figures for the inhibition at 0.1 µM on human 5-HT6 receptor and at human α1D receptor were 85% and 92%, respectively.

In the case of `COc1ccc2cc(C(=O)N3CCOC[C@H]3CCN3CCC(c4noc5cc(F)ccc45)CC3)[nH]c2c1` [Example 15], the inhibition at 0.01 µM at human D2L receptor stood at 84%; at human 5-HT2A receptor it was 94%. Also, at human 5-HT2A receptor (1 nM test drug), the inhibition at 0.001 µM came to 76%. Besides, the inhibition at 0.1 µM at human 5-HT6 receptor turned out to be 79%; at human α1D receptor it was 74%.

For `O=C(/C=C/c1ccc2c(c1)OCO2)N1CCC[C@@H](CCN2CCN(c3nsc4ccccc34)CC2)C1` [Example 4, (S,E)-3-(Benzo[d][1,3]-5-dioxolyl)-1-(3-(2-(4-(benzo[d]isothiazo-3-yl)piperazin-1-yl)ethyl)piperidin-1-yl)-2-propen-1-one], the inhibition at 0.01 µM at human D2L receptor was 73%; on human 5-HT2A receptor, 96%. Moreover, the inhibition at 0.1 µM on human 5-HT6 receptor worked out at 65%; at human α1D receptor, 30%.

Turning to `Cc1ccc2[nH]c(C(=O)N3CCOC[C@H]3CCN3CCC(c4coc5ccccc45)CC3)cc2c1` [Example 27], the inhibition at 0.01 µM at human D2L receptor was determined as 87%; on human 5-HT2A receptor it was 93%. For the same compound, the values for the inhibition at 0.1 µM at human 5-HT6 receptor and on human α1D receptor were 85% and 97%, respectively.

Turning to `O=C(/C=C/c1ccc2c(c1)OCO2)N1CCCC[C@H]1CCN1CCN(c2cccc3ccccc23)CC1` [Example 9], the inhibition at 0.01 µM turned out to be 32% on human D2L receptor and 94% at human 5-HT2A receptor. In addition, the inhibition at 0.1 µM at human 5-HT6 receptor turned out to be 61%; at human α1D receptor, 5%.

Consider `COc1c(F)ccc2[nH]c(C(=O)N3CCC[C@H]3CCN3CCC(C(=O)c4ccc(F)cc4)CC3)cc12` [Example 162, (S)-(5-Fluoro-4-methoxy-1H-indol-2-yl)(2-(2-(4-(4-fluorobenzoyl)piperidin-1-yl)ethyl)pyrrolidin-1-yl)methanone], for which, on human D2L receptor, the inhibition at 0.01 µM came out at 86%. For the same compound, the inhibition at 0.001 µM at human 5-HT2A receptor (1 nM test drug) stood at 84%. Also, the inhibition at 0.1 µM at human 5-HT6 receptor amounted to 93%; on human α1D receptor, 79%.

With `N#Cc1ccc2[nH]c(C(=O)N3CCC[C@H]3CCN3CCC(C(=O)c4ccc(F)cc4)CC3)cc2c1` [Example 56], the inhibition at 0.01 µM at human D2L receptor amounted to 84%. Besides, the inhibition at 0.001 µM on human 5-HT2A receptor (1 nM test drug) was determined as 70%. Moreover, the inhibition at 0.1 µM on human 5-HT6 receptor is 91%; at human α1D receptor it was 70%.

For `O=C(c1ccc(F)cc1)C1CCN(CC[C@@H]2CCCN2C(=O)c2cc3ccc(F)cc3[nH]2)CC1` [Example 159, (S)-(6-Fluoro-1H-indol-2-yl)(2-(2-(4-(4-fluorobenzoyl)piperidin-1-yl)ethyl)pyrrolidin-1-yl)-methanone], on human D2L receptor, the inhibition at 0.01 µM was determined as 93%. For the same compound, the inhibition at 0.001 µM on human 5-HT2A receptor (1 nM test drug) was found to be 78%. Also, the inhibition at 0.1 µM on human 5-HT6 receptor worked out at 96%; at human α1D receptor, 71%.

As to `O=C(c1ccc(F)cc1)C1CCN(CC[C@@H]2CCCN2C(=O)c2cc(-c3ccccc3)n[nH]2)CC1` [Example 51], the inhibition at 0.01 µM at human D2L receptor was 81%. The inhibition at 0.001 µM at human 5-HT2A receptor (1 nM test drug) came to 76%. The values for the inhibition at 0.1 µM at human 5-HT6 receptor and at human α1D receptor were 95% and 51%, respectively.
